Measurements from ChEMBL document CHEMBL1201862, “PubChem BioAssay data set” (2004).
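Each compound was tested at five concentrations against cells in 96-well plates for 48 hours. GI50 is the concentration that inhibits growth by half.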 The source made the active and inactive calls. Rule as the data show it: active = GI50 up to about 1.1 µM and inactive = higher.

Key:
Assay in all cases: NCI tumour cell line growth inhibition, 48 h
OVCAR-4 = test system: OVCAR-4
DU-145 = test system: DU-145
COLO 205 = test system: COLO 205
A549 = test system: A549
IGROV-1 = test system: IGROV-1
HOP-92 = test system: HOP-92
SN12C = test system: SN12C
NCI-H522 = test system: NCI-H522
NCI-H226 = test system: NCI-H226
RPMI-8226 = test system: RPMI-8226
SNB-19 = test system: SNB-19
HCT-116 = test system: HCT-116
NCI-H460 = test system: NCI-H460
Hs-578T = test system: Hs-578T
A498 = test system: A498
TK-10 = test system: TK-10
NCI/ADR-RES = test system: NCI/ADR-RES
T47D = test system: T47D
SNB-75 = test system: SNB-75
SK-OV-3 = test system: SK-OV-3
EKVX = test system: EKVX
MCF7 = test system: MCF7
SK-MEL-2 = test system: SK-MEL-2
KM12 = test system: KM12
SW-620 = test system: SW-620
SF-539 = test system: SF-539
SF-268 = test system: SF-268
PC-3 = test system: PC-3
HCC 2998 = test system: HCC 2998
CAKI-1 = test system: CAKI-1
M14 = test system: M14
HCT-15 = test system: HCT-15
SR = test system: SR
HT-29 = test system: HT-29
MOLT-4 = test system: MOLT-4
OVCAR-5 = test system: OVCAR-5
SK-MEL-5 = test system: SK-MEL-5
MDA-MB-435 = test system: MDA-MB-435
LOX IMVI = test system: LOX IMVI
U-251 = test system: U-251
HL-60 = test system: HL-60
MDA-N = test system: MDA-N
OVCAR-3 = test system: OVCAR-3
OVCAR-8 = test system: OVCAR-8
K562 = test system: K562
786-0 = test system: 786-0
RXF 393 = test system: RXF 393
MDA-MB-231 = test system: MDA-MB-231
UACC-257 = test system: UACC-257
SK-MEL-28 = test system: SK-MEL-28
UO-31 = test system: UO-31
Malme-3M = test system: Malme-3M
NCI-H23 = test system: NCI-H23
UACC-62 = test system: UACC-62
ACHN = test system: ACHN
CCRF-CEM = test system: CCRF-CEM
HOP-62 = test system: HOP-62
SF-295 = test system: SF-295
BT-549 = test system: BT-549

Measured: GI50

CCCCCCCCCCCCCCCCCCOCC(CO[PH](=O)O)OCCCCCCCCCCCCCCCCCC (stereo not drawn)
inactive: OVCAR-4 > 50 µM | DU-145 > 50 µM | COLO 205 > 50 µM | A549 > 50 µM | IGROV-1 > 50 µM | HOP-92 > 50 µM | SN12C > 50 µM | NCI-H522 > 50 µM | NCI-H226 > 50 µM | RPMI-8226 > 50 µM | SNB-19 > 50 µM | HCT-116 > 50 µM | NCI-H460 > 50 µM | Hs-578T > 50 µM | A498 > 50 µM | TK-10 > 50 µM | NCI/ADR-RES > 50 µM | T47D > 50 µM | SNB-75 > 50 µM | SK-OV-3 > 50 µM | EKVX > 50 µM | MCF7 > 50 µM | SK-MEL-2 > 50 µM | KM12 > 50 µM | SW-620 > 50 µM | SF-539 > 50 µM | SF-268 > 50 µM | PC-3 > 50 µM | HCC 2998 > 50 µM | CAKI-1 > 50 µM | M14 > 50 µM | SR > 50 µM | HT-29 > 50 µM | MOLT-4 > 50 µM | OVCAR-5 > 50 µM | SK-MEL-5 > 50 µM | MDA-MB-435 > 50 µM | LOX IMVI > 50 µM | U-251 > 50 µM | HL-60 > 50 µM | MDA-N > 50 µM | OVCAR-3 > 50 µM | OVCAR-8 > 50 µM | K562 > 50 µM | 786-0 > 50 µM | RXF 393 > 50 µM | MDA-MB-231 > 50 µM | UACC-257 > 50 µM | SK-MEL-28 > 50 µM
> 50 µM: HCT-15

CC(C)NCC(O)c1ccc(OCc2ccccc2)c(OCc2ccccc2)c1-c1ccccc1 (stereo not drawn)
inactive: OVCAR-4 1.89 µM | DU-145 1.75 µM | COLO 205 1.7 µM | A549 1.72 µM | IGROV-1 1.41 µM | HOP-92 2.62 µM | UO-31 2.52 µM | SN12C 1.75 µM | NCI-H522 1.65 µM | NCI-H226 2.33 µM | RPMI-8226 2.51 µM | SNB-19 2.6 µM | HCT-116 1.79 µM | NCI-H460 1.79 µM | Malme-3M 1.77 µM | Hs-578T 1.34 µM | NCI-H23 1.97 µM | A498 2.49 µM | TK-10 2.35 µM | NCI/ADR-RES 2 µM | T47D 2.74 µM | SNB-75 1.28 µM | SK-OV-3 1.67 µM | EKVX 14.3 µM | MCF7 1.79 µM | SK-MEL-2 2.7 µM | KM12 2.16 µM | SW-620 1.63 µM | SF-539 1.58 µM | SF-268 2.93 µM | PC-3 1.53 µM | UACC-62 1.41 µM | ACHN 1.68 µM | CCRF-CEM 1.95 µM | HCC 2998 1.69 µM | CAKI-1 1.76 µM | M14 1.93 µM | SR 2.68 µM | HT-29 1.66 µM | MOLT-4 2.05 µM | OVCAR-5 1.77 µM | SK-MEL-5 1.25 µM | HOP-62 1.79 µM | MDA-MB-435 1.79 µM | LOX IMVI 3.07 µM | SF-295 2.05 µM | U-251 1.67 µM | MDA-N 1.69 µM | OVCAR-3 1.8 µM | OVCAR-8 1.73 µM | K562 1.63 µM | 786-0 1.71 µM | RXF 393 3 µM | MDA-MB-231 1.69 µM | UACC-257 1.88 µM | SK-MEL-28 1.76 µM
1.82 µM: HCT-15

SC1=NNC2(C(S)=N1)c1ccccc1-c1ccccc12
> 10 µM: HCT-15
active: Hs-578T 0.394 µM | A498 0.697 µM
inactive: OVCAR-4 > 10 µM | DU-145 > 10 µM | COLO 205 > 10 µM | A549 > 10 µM | IGROV-1 > 10 µM | HOP-92 > 10 µM | UO-31 4.51 µM | SN12C > 10 µM | NCI-H226 8.81 µM | RPMI-8226 > 10 µM | NCI-H460 > 10 µM | Malme-3M > 10 µM | NCI-H23 > 10 µM | TK-10 > 10 µM | NCI/ADR-RES > 10 µM | T47D 4.83 µM | SNB-75 > 10 µM | SK-OV-3 > 10 µM | EKVX > 10 µM | MCF7 5.37 µM | KM12 > 10 µM | SW-620 > 10 µM | SF-539 > 10 µM | SF-268 > 10 µM | UACC-62 > 10 µM | CCRF-CEM > 10 µM | HCC 2998 > 10 µM | CAKI-1 > 10 µM | M14 > 10 µM | SR > 10 µM | HT-29 > 10 µM | MOLT-4 > 10 µM | SK-MEL-5 > 10 µM | HOP-62 > 10 µM | BT-549 > 10 µM | LOX IMVI > 10 µM | U-251 > 10 µM | HL-60 > 10 µM | OVCAR-8 > 10 µM | K562 > 10 µM | 786-0 > 10 µM | MDA-MB-231 > 10 µM | UACC-257 > 10 µM

C[C@H](O)C1CC(Cn2nnc3c(N)ncnc32)C1(C)C (stereo partly drawn)
active: K562 < 0.01 µM
> 100 µM: HCT-15
inactive: OVCAR-4 > 100 µM | DU-145 > 100 µM | A549 > 100 µM | HOP-92 > 100 µM | UO-31 > 100 µM | SN12C > 100 µM | NCI-H226 > 100 µM | SNB-19 > 100 µM | HCT-116 > 100 µM | Hs-578T > 100 µM | A498 > 100 µM | TK-10 > 100 µM | NCI/ADR-RES > 100 µM | T47D > 100 µM | SNB-75 > 100 µM | SK-OV-3 > 100 µM | EKVX > 100 µM | MCF7 > 100 µM | SK-MEL-2 > 100 µM | KM12 > 100 µM | SW-620 > 100 µM | SF-539 > 100 µM | SF-268 > 100 µM | PC-3 > 100 µM | UACC-62 5.36 µM | ACHN > 100 µM | CCRF-CEM > 100 µM | HCC 2998 > 100 µM | CAKI-1 > 100 µM | M14 > 100 µM | OVCAR-5 > 100 µM | SK-MEL-5 > 100 µM | HOP-62 > 100 µM | MDA-MB-435 > 100 µM | LOX IMVI > 100 µM | SF-295 > 100 µM | U-251 > 100 µM | MDA-N > 100 µM | OVCAR-3 > 100 µM | 786-0 > 100 µM | RXF 393 > 100 µM | MDA-MB-231 > 100 µM | UACC-257 > 100 µM | SK-MEL-28 > 100 µM

CN(C)C(=O)C(F)(F)C(c1ccccc1)C1C(=O)N(C)C(=O)N(C)C1=O (stereo not drawn)
> 100 µM: HCT-15
inactive: OVCAR-4 > 100 µM | DU-145 > 100 µM | COLO 205 > 100 µM | A549 > 100 µM | HOP-92 > 100 µM | UO-31 > 100 µM | NCI-H226 > 100 µM | RPMI-8226 > 100 µM | SNB-19 > 100 µM | HCT-116 > 100 µM | NCI-H460 > 100 µM | NCI-H23 > 100 µM | A498 > 100 µM | TK-10 > 100 µM | NCI/ADR-RES > 100 µM | T47D > 100 µM | SNB-75 > 100 µM | SK-OV-3 > 100 µM | EKVX > 100 µM | MCF7 > 100 µM | SK-MEL-2 > 100 µM | KM12 > 100 µM | SW-620 > 100 µM | SF-268 > 100 µM | PC-3 > 100 µM | UACC-62 > 100 µM | ACHN > 100 µM | CCRF-CEM > 100 µM | HCC 2998 > 100 µM | CAKI-1 > 100 µM | M14 > 100 µM | MOLT-4 > 100 µM | OVCAR-5 > 100 µM | SK-MEL-5 > 100 µM | HOP-62 > 100 µM | MDA-MB-435 > 100 µM | BT-549 > 100 µM | LOX IMVI > 100 µM | SF-295 > 100 µM | U-251 > 100 µM | OVCAR-3 > 100 µM | OVCAR-8 > 100 µM | K562 > 100 µM | 786-0 > 100 µM | RXF 393 > 100 µM | MDA-MB-231 > 100 µM | UACC-257 > 100 µM | SK-MEL-28 > 100 µM
